In US20040063764A1, “Halogen compounds having thrombopoietin receptor agonism” (priority 2001, published 2004) one finds EC50 data, which are given here for 40 compounds.

Each structure is given as a SMILES string.

As a reminder, the EC50 is the concentration giving half of the maximal effect. Higher therefore signals lower potency in that assay.

One assay addresses T1, human TPO receptor (Homo sapiens, UniProt P40238).
T1 construct: expressed in transfected cells; host or cells: BaF-B03 (murine IL-3 dependent pro-B cell line); the resulting line is BaF/hTPOR
T1 sequence (P40238 26-635): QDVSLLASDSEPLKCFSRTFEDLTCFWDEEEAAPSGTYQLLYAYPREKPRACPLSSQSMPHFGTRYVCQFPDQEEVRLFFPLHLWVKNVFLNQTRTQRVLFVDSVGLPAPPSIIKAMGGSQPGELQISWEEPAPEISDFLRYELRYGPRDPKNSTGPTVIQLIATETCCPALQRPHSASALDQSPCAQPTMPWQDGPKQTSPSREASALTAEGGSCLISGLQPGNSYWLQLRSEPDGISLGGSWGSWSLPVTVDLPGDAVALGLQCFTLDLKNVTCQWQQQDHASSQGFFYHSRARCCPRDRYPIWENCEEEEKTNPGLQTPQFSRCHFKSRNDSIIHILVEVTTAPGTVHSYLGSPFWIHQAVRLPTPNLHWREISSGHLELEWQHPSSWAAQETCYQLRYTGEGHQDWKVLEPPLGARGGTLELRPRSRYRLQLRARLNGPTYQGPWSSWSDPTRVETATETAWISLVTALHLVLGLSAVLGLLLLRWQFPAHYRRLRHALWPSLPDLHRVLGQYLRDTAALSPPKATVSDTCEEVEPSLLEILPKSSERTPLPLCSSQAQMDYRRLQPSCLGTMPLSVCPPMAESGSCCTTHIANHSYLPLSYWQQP
Put plainly: Thrombopoietic activity: proliferation of TPO dependent BaF/hTPOR cell line (WST-1). It counts as cell-based. The settings on record: BaF/hTPOR cells, 20 hours incubation then WST-1 for 4 hours, absorbance at 450 nm; ED50 = half concentration of the concentration showing the maximum thrombopoietic activity. The source says: The TPO dependent BaF/hTPOR cell line which was established by introducing human TPO receptor into BaF-B03 cells according to Collins et al (J. Cell. Physiol., 137:293-298 (1988)) was used to test the thrombopoietic activity of the present compound. The DNA sequences and encoded peptide sequences for human TPO receptor have been described by Vigon et al (Proc. Natl. Acad. Sci. USA, 89:5640-5644 (1992)). TPO dose not have any ability to support proliferation of interlukin-3 dependent parental cell line BaF-B03. BAF/hTPOR cells were maintained in RPMI medium and 10% WEHI-3 conditioned medium. These cells were washed once with PBS and resuspended in RPMI medium without WHEHI-3 conditioned medium and seeded into each well of 96-well microtiter plates at a density of 5×10^4 cells per well in the presence of the present compound or TPO. After incubation at 37° C. for 20 hours in the 5% CO2 incubator, WST-1 reagent (Takara Biomedicals, Japan) was added to each wells and the cells were further incubated for 4 hours. The absorbance at 450 nm was measured. Table 7 exemplifies the ED50 for tested compounds of the present invention, wherein the ED50 is the half concentration of the concentration showing the maximum thrombopoietic activity.
As for `COCCOCCc1cccc(-c2csc(NC(=O)c3ccc(/C=C4\SC(=O)NC4=O)cc3)n2)c1F` [Compound A-43], the concentration for a half-maximal effect (EC50) was determined as 69 nM.

For `O=C1NC(=O)/C(=C/c2ccc(C(=O)Nc3nc(-c4ccc(Br)cc4F)cs3)cc2)S1` [Compound A-6], the EC50 is 38 nM.

`COc1ccc(-c2csc(NC(=O)c3ccc(/C=C4\SC(=O)NC4=O)cc3)n2)c(F)c1` [Compound A-3] yielded an EC50 of 75 nM.

Consider `O=C1NC(=O)/C(=C/c2ccc(C(=O)Nc3nc(-c4cc(F)ccc4F)cs3)cc2)S1` [Compound A-2], for which the midpoint of the response, the EC50, lay at 86 nM.

In turn, `O=C1NC(=O)/C(=C/c2ccc(C(=O)Nc3nc(-c4cccc(F)c4F)cs3)cc2)S1` [Compound A-5] came in with an EC50 of 25 nM.

The compound `COC(c1cccc(-c2csc(NC(=O)c3ccc(/C=C4\SC(=O)NC4=O)cc3)n2)c1F)C1CCCCC1` (stereo not shown) [Compound A-51] yielded a half-maximal effective concentration (EC50) of 13 nM.

`CCOC(=O)CCCCc1cccc(-c2csc(NC(=O)c3ccc(/C=C4\SC(=O)NC4=O)cc3)n2)c1F` [Compound A-44] had an EC50 of 84 nM.

Turning to `CCCc1c(Br)ccc(-c2csc(NC(=O)c3ccc(/C=C4\SC(=O)NC4=O)cc3)n2)c1F` [Compound A-29], the half-maximal effective concentration (EC50) stood at 16 nM. This EC50 lies about 5.2-fold lower than the previous one.

`O=C1NC(=O)/C(=C/c2ccc(C(=O)Nc3nc(-c4cccc(OC(F)(F)F)c4F)cs3)cc2)S1` [Compound A-46] registered an EC50 of 13 nM.

`O=C1NC(=O)/C(=C/c2ccc(C(=O)Nc3nc(-c4ccc(C(F)(F)F)cc4F)cs3)cc2)S1` [Compound A-4] had an EC50 of 26 nM. This EC50 is about 2-fold higher than that of the compound before.

`O=C1NC(=O)/C(=C/c2ccc(C(=O)Nc3nc(-c4cccc(-c5ccccc5)c4F)cs3)cc2)S1` [Compound A-13] had a half-maximal effective concentration (EC50) of 25 nM. This EC50 and that of the compound before are within 1.5-fold of each other.

As for `CCOc1cccc(-c2csc(NC(=O)c3ccc(/C=C4\SC(=O)NC4=O)cc3)n2)c1F` [Compound A-31], the half-maximal effective concentration (EC50) came to 58 nM.

The compound `O=C1NC(=O)/C(=C/c2ccc(C(=O)Nc3nc(-c4cccc(CCc5ccccc5)c4F)cs3)cc2)S1` [Compound A-33] came in with a half-maximal effective concentration (EC50) of 12 nM.

`CCOC(=O)CCCCCc1cccc(-c2csc(NC(=O)c3ccc(/C=C4\SC(=O)NC4=O)cc3)n2)c1F` [Compound A-45]: the EC50 was 74 nM. This EC50 is about 6.2-fold higher than that of the compound before.

As to `CCOCCc1cccc(-c2csc(NC(=O)c3ccc(/C=C4\SC(=O)NC4=O)cc3)n2)c1F` [Compound A-35], the EC50 is 23 nM.

As to `O=C1NC(=O)/C(=C/c2ccc(C(=O)Nc3nc(-c4cccc(Cc5ccccc5)c4F)cs3)cc2)S1` [Compound A-34], the EC50 stood at 23 nM.

On to `CCCCc1cccc(-c2csc(NC(=O)c3ccc(/C=C4\SC(=O)NC4=O)cc3)n2)c1F` [Compound A-28], for which the EC50 came to 10 nM.

In turn, `CC(C)(C)CCc1cccc(-c2csc(NC(=O)c3ccc(/C=C4\SC(=O)NC4=O)cc3)n2)c1F` [Compound A-32] showed an EC50 of 9 nM.

Turning to `Cc1ccc(-c2csc(NC(=O)c3ccc(/C=C4\SC(=O)NC4=O)cc3)n2)c(F)c1` [Compound A-7], the EC50 was 70 nM. This EC50 lies about 7.8-fold higher than the previous one.

The compound `O=C1NC(=O)/C(=C/c2ccc(C(=O)Nc3nc(-c4ccc(-c5ccccc5)cc4F)cs3)cc2)S1` [Compound A-8] displayed a concentration giving a half-maximal response (EC50) of 345 nM.

Take `O=C1NC(=S)S/C1=C\c1ccc(C(=O)Nc2nc(-c3cccc(C(F)(F)F)c3F)cs2)cc1` [Compound A-1]: the EC50 came to 8 nM.

For the compound `COC(c1cccc(-c2csc(NC(=O)c3ccc(/C=C4\SC(=O)NC4=O)cc3)n2)c1F)C(C)C` (stereo not shown) [Compound A-50], a half-maximal response (EC50) required 28 nM.

On to `O=C1NC(=O)/C(=C/c2ccc(C(=O)Nc3nc(-c4cc(F)c(F)c(F)c4F)cs3)cc2)S1` [Compound A-10], for which the response was half-maximal at 76 nM (EC50).

`O=C1NC(=O)/C(=C/c2ccc(C(=O)Nc3nc(-c4cccc(C5CCCC5)c4F)cs3)cc2)S1` [Compound A-38] showed an EC50 of 28 nM.

Compound `COCCc1cccc(-c2csc(NC(=O)c3ccc(/C=C4\SC(=O)NC4=O)cc3)n2)c1F` [Compound A-42] registered a concentration giving a half-maximal response (EC50) of 37 nM.

Regarding `O=C1NC(=O)/C(=C/c2ccc(C(=O)Nc3nc(-c4cccc(C5CCCCC5)c4F)cs3)cc2)S1` [Compound A-37], the concentration giving a half-maximal response (EC50) is 17 nM.

For `O=C1NC(=O)/C(=C/c2ccc(C(=O)Nc3nc(-c4cccc(-c5cccnc5)c4F)cs3)cc2)S1` [Compound A-30], the 50% effective concentration (EC50) was determined as 109 nM.

The same assay, now with this note: Table 7; BaF/hTPOR cells, 20 hours incubation then WST-1 for 4 hours, absorbance at 450 nm; ED50 = half concentration of the concentration showing the maximum thrombopoietic activity.
For the compound `Cc1cccc(-c2csc(NC(=O)c3ccc(C=C4SC(=O)NC4=O)cc3)n2)c1F` [Compound A-16], it took 25 nM to reach a half-maximal effect (EC50).

For `O=C1NC(=O)C(=Cc2ccc(C(=O)Nc3nc(-c4ccc(F)c(Br)c4F)cs3)cc2)S1` [Compound A-18], the response was half-maximal at 83 nM (EC50).

Turning to `COc1cccc(-c2csc(NC(=O)c3ccc(C=C4SC(=O)NC4=O)cc3)n2)c1F` [Compound A-15], the EC50 was determined as 73 nM.

Regarding `O=C1NC(=O)C(=Cc2ccc(C(=O)Nc3nc(-c4cccc(-c5ccc(F)cc5)c4F)cs3)cc2)S1` [Compound A-20], the EC50 was found to be 28 nM.

Regarding `CCCCCCc1cccc(-c2csc(NC(=O)c3ccc(C=C4SC(=O)NC4=O)cc3)n2)c1F` [Compound A-22], the midpoint of the response, the EC50, lay at 7 nM.

The compound `CCCCOc1cccc(-c2csc(NC(=O)c3ccc(C=C4SC(=O)NC4=O)cc3)n2)c1F` [Compound A-24] showed a concentration for a half-maximal effect (EC50) of 49 nM.

Compound `CCCCCc1cccc(-c2csc(NC(=O)c3ccc(C=C4SC(=O)NC4=O)cc3)n2)c1F` [Compound A-17] registered a half-maximal effective concentration (EC50) of 13 nM.

Compound `O=C1NC(=O)C(=Cc2ccc(C(=O)Nc3nc(-c4cccc(Br)c4F)cs3)cc2)S1` [Compound A-14] had a concentration for a half-maximal effect (EC50) of 26 nM. This EC50 is about 2-fold higher than that of the compound before.

`CCCCCc1c(F)ccc(-c2csc(NC(=O)c3ccc(C=C4SC(=O)NC4=O)cc3)n2)c1F` [Compound A-23] returned an EC50 of 75 nM.

The compound `CC(C)CCCCc1cccc(-c2csc(NC(=O)c3ccc(C=C4SC(=O)NC4=O)cc3)n2)c1F` [Compound A-26] displayed a concentration giving a half-maximal response (EC50) of 7 nM.

In the case of `CCc1cccc(-c2csc(NC(=O)c3ccc(C=C4SC(=O)NC4=O)cc3)n2)c1F` [Compound A-25], the EC50 amounted to 18 nM. This EC50 lies about 2.6-fold higher than the previous one.

As for `O=C1NC(=O)C(=Cc2ccc(C(=O)Nc3nc(-c4ccc(C(F)(F)F)c(Br)c4F)cs3)cc2)S1` [Compound A-21], the concentration for a half-maximal effect (EC50) was 355 nM.

Turning to `O=C1NC(=O)C(=Cc2ccc(C(=O)Nc3nc(-c4ccc(F)c(-c5ccccc5)c4F)cs3)cc2)S1` [Compound A-19], the half-maximal effective concentration (EC50) is 69 nM.
